Results on 35 compounds are retold here after ChEMBL document CHEMBL3879902, “Compounds and methods for kinase modulation, and indications thereof” (2012).

A short description of data set [1]: Aqueous solubility of the compound in hepes buffer at pH 7.4. Type of data set: physicochemical.
The nature of data set [2]: Aqueous solubility of the compound in simulated gastric fluid at pH 1.5. The conditions noted are these: simulated gi fluid. Type of data set: ADME.
Data set [3] is described as follows: Aqueous solubility of the compound in simulated intestinal fluid at pH 4.5. Type of data set: ADME. The conditions noted are these: simulated gi fluid.
Data set [4] in a line: Aqueous solubility of the compound in simulated intestinal fluid at pH 6.8. Type of data set: ADME. Particulars: simulated gi fluid.

With `CCCS(=O)(=O)Nc1ccc(F)c(C(=O)c2c[nH]c3ncc(-c4ccc(OCCCN5CCCC5)nc4)cc23)c1F`, the solubility result in data set [1] is “Insoluble”; in data set [2], “Insoluble”; in data set [3] it was “Soluble”; in data set [4], “Insoluble”.
Take `CCCS(=O)(=O)Nc1ccc(F)c(C(=O)c2c[nH]c3ncc(-c4ccc(S(=O)(=O)N(C)C)cc4)cc23)c1F`: the solubility result in data set [1], in data set [2], in data set [3] and in data set [4] was “Insoluble” in each case.
Consider `N#Cc1cnc2[nH]cc(C(=O)c3c(F)ccc(NS(=O)(=O)c4ccccc4F)c3F)c2c1`, for which the solubility result in data set [1], in data set [2], in data set [3] and in data set [4] was “Soluble” in each case.
With `CCCS(=O)(=O)Nc1ccc(F)c(C(=O)c2c[nH]c3ncc(-c4cn[nH]c4)cc23)c1F`, the solubility entry in data set [1], in data set [2], in data set [3] and in data set [4] was “Insoluble” throughout.
As to `CCCS(=O)(=O)Nc1ccc(F)c(C(=O)c2c[nH]c3ncc(-c4ccc(OCCCN(C)C)nc4)cc23)c1F`, the solubility result was “Insoluble” in data set [1], “Soluble” in data set [2], “Soluble” in data set [3] and “Insoluble” in data set [4].
For the compound `CCCS(=O)(=O)Nc1ccc(F)c(C(=O)c2c[nH]c3ncc(-c4ccc(F)nc4)cc23)c1F`, the solubility result in data set [1], in data set [2], in data set [3] and in data set [4] was “Insoluble” each time.
In the case of `N#Cc1cnc2[nH]cc(C(=O)c3cccc(NS(=O)(=O)c4cccnc4)c3F)c2c1`, the solubility result in data set [1], in data set [2], in data set [3] and in data set [4] was “Soluble” in each case.
As for `COc1cnc2[nH]cc(C(=O)c3c(F)ccc(NS(=O)(=O)c4cc(F)ccc4F)c3F)c2c1`, the solubility entry is “Soluble” in data set [1], “Insoluble” in data set [2], “Insoluble” in data set [3] and “Soluble” in data set [4].
For `CCCS(=O)(=O)Nc1cccc(C(=O)c2c[nH]c3ncc(-c4cnc(OC)nc4)cc23)c1F`, the solubility entry in data set [1], in data set [2], in data set [3] and in data set [4] was “Insoluble” each time.
Regarding `CCCS(=O)(=O)Nc1ccc(F)c(C(=O)c2c[nH]c3ncc(-c4ccc(NS(C)(=O)=O)cc4)cc23)c1F`, the solubility entry in data set [1], in data set [2], in data set [3] and in data set [4] was “Insoluble” in each case.
Regarding `CCCS(=O)(=O)Nc1cccc(C(=O)c2c[nH]c3ncc(-c4cnc(N(C)C)nc4)cc23)c1F`, the solubility result in data set [1], in data set [2], in data set [3] and in data set [4] was “Insoluble” each time.
`CCCS(=O)(=O)Nc1ccc(F)c(C(=O)c2c[nH]c3ncc(-c4ccc(C#CCN(CC)CC)nc4)cc23)c1F`: the solubility result in data set [1], in data set [2], in data set [3] and in data set [4] was “Insoluble” in each case.
In the case of `Cc1cnc2[nH]cc(C(=O)c3c(F)ccc(NS(=O)(=O)c4cccnc4)c3F)c2c1`, the solubility entry in data set [1], in data set [2], in data set [3] and in data set [4] was “Soluble” throughout.
For `Cc1cnc2[nH]cc(C(=O)c3c(F)ccc(NS(=O)(=O)c4cc(F)ccc4F)c3F)c2c1`, the solubility result in data set [1] is “Soluble”; in data set [2] it was “Soluble”; in data set [3], “Insoluble”; in data set [4], “Soluble”.
`O=C(c1c(F)ccc(NS(=O)(=O)c2cccnc2)c1F)c1c[nH]c2ncc(Cl)cc12`: the solubility entry in data set [1], in data set [2], in data set [3] and in data set [4] was “Soluble” in each case.
Consider `CCCS(=O)(=O)Nc1ccc(F)c(C(=O)c2c[nH]c3ncc(-c4ccnc(F)c4)cc23)c1F`, for which the solubility result in data set [1], in data set [2], in data set [3] and in data set [4] was “Insoluble” each time.
For `O=C(c1c(F)ccc(NS(=O)(=O)c2c(F)cccc2F)c1F)c1c[nH]c2ncc(Cl)cc12`, the solubility entry in data set [1], in data set [2], in data set [3] and in data set [4] was “Soluble” each time.
For the compound `COc1ccnc2[nH]cc(C(=O)c3c(F)ccc(NS(=O)(=O)c4ccccc4F)c3F)c12`, the solubility entry in data set [1], in data set [2], in data set [3] and in data set [4] was “Soluble” in each case.
Regarding `Cc1cnc2[nH]cc(C(=O)c3c(F)ccc(NS(=O)(=O)c4ccccc4F)c3F)c2c1`, the solubility result is listed as “Soluble” in data set [1], “Insoluble” in data set [2], “Soluble” in data set [3] and “Soluble” in data set [4].
For the compound `COc1cnc2[nH]cc(C(=O)c3c(F)ccc(NS(=O)(=O)c4ccccc4F)c3F)c2c1`, the solubility result is recorded as “Soluble” in data set [1], “Insoluble” in data set [2], “Insoluble” in data set [3] and “Insoluble” in data set [4].
Regarding `CCCS(=O)(=O)Nc1ccc(F)c(C(=O)c2c[nH]c3ncc(-c4ccc(S(C)(=O)=O)cc4)cc23)c1F`, the solubility result in data set [1], in data set [2], in data set [3] and in data set [4] was “Insoluble” each time.
Take `CCCS(=O)(=O)Nc1ccc(F)c(C(=O)c2c[nH]c3ncc(-c4cnc(N5CCCC5)nc4)cc23)c1F`: the solubility result in data set [1] is reported as “Insoluble”; in data set [2], “Soluble”; in data set [3], “Insoluble”; in data set [4] it was “Insoluble”.
Turning to `CCCS(=O)(=O)Nc1ccc(F)c(C(=O)c2c[nH]c3ncc(C#CCOC)cc23)c1F`, the solubility result was “Soluble” in data set [1], “Insoluble” in data set [2], “Soluble” in data set [3] and “Insoluble” in data set [4].
In the case of `N#Cc1cnc2[nH]cc(C(=O)c3cccc(NS(=O)(=O)c4ccccc4)c3F)c2c1`, the solubility result in data set [1] is given as “Soluble”; in data set [2], “Insoluble”; in data set [3], “Insoluble”; in data set [4], “Soluble”.
For `CCCS(=O)(=O)Nc1ccc(F)c(C(=O)c2c[nH]c3ncc(-c4cnc(N(C)C)nc4)cc23)c1F`, the solubility result in data set [1] is “Insoluble”; in data set [2], “Soluble”; in data set [3], “Insoluble”; in data set [4] it was “Insoluble”.
For `N#Cc1ccnc2[nH]cc(C(=O)c3c(F)ccc(NS(=O)(=O)c4ccccc4F)c3F)c12`, the solubility result in data set [1], in data set [2], in data set [3] and in data set [4] was “Soluble” each time.
As to `O=C(c1c(F)ccc(NS(=O)(=O)c2cc(F)ccc2F)c1F)c1c[nH]c2ncc(Cl)cc12`, the solubility result is on record as “Soluble” in data set [1], “Insoluble” in data set [2], “Insoluble” in data set [3] and “Soluble” in data set [4].
`CCCS(=O)(=O)Nc1ccc(F)c(C(=O)c2c[nH]c3ncc(-c4cnn(Cc5ccccc5)c4)cc23)c1F`: the solubility entry in data set [1], in data set [2], in data set [3] and in data set [4] was “Insoluble” throughout.
For the compound `CCCS(=O)(=O)Nc1ccc(F)c(C(=O)c2c[nH]c3ncc(-c4ccc(C)nc4)cc23)c1F`, the solubility entry in data set [1] is “Insoluble”; in data set [2], “Soluble”; in data set [3], “Soluble”; in data set [4] it was “Insoluble”.
Consider `CCCS(=O)(=O)Nc1ccc(F)c(C(=O)c2c[nH]c3ncc(-c4ccc(S(=O)(=O)NC5CC5)cc4)cc23)c1F`, for which the solubility result in data set [1], in data set [2], in data set [3] and in data set [4] was “Insoluble” throughout.
As for `CCCS(=O)(=O)Nc1ccc(F)c(C(=O)c2c[nH]c3ncc(-c4ccc(C(=O)NC)nc4)cc23)c1F`, the solubility result in data set [1], in data set [2], in data set [3] and in data set [4] was “Insoluble” throughout.
Regarding `O=C(c1c(F)ccc(NS(=O)(=O)c2ccccc2F)c1F)c1c[nH]c2nccc(Cl)c12`, the solubility entry in data set [1], in data set [2], in data set [3] and in data set [4] was “Soluble” each time.
Consider `COc1ncc(-c2cnc3[nH]cc(C(=O)c4c(F)ccc(NS(=O)(=O)c5ccccc5F)c4F)c3c2)cn1`, for which the solubility result in data set [1], in data set [2], in data set [3] and in data set [4] was “Insoluble” each time.
With `CCCS(=O)(=O)Nc1ccc(F)c(C(=O)c2c[nH]c3ncc(-c4cnc(SC)nc4)cc23)c1F`, the solubility entry in data set [1], in data set [2], in data set [3] and in data set [4] was “Insoluble” each time.
For `CCCS(=O)(=O)Nc1ccc(F)c(C(=O)c2c[nH]c3ncc(-c4cnn(CCN5CCOCC5)c4)cc23)c1F`, the solubility entry was “Insoluble” in data set [1], “Soluble” in data set [2], “Soluble” in data set [3] and “Insoluble” in data set [4].
